# In the supplement of paper PMC11208160:
# Experiment: recombinant UMI read abundance after kanamycin selection (control-corrected) (log10(CPM+1)); higher = more efficient recombination; extreme values may be limits of the assay; sequences stand for … in AGTGCAGAGAAAATCGGCCAGTTTTCTCTGCCTGCAGTCCGCATGCCGTGGGACCCCTTGGGTTCTAACCTGTTGCCTAGATTTATGCAGCGGACTGCCTTTCTCCCAAAGTGATAAACCGG…AGGTTGGTTTCACT; site = the 11-nt donor
# Procedure, shortened: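 The measure is log10(CPM+1) for recombinant UMIs. These were PCR-amplified across the donor–target junction and sequenced after Escherichia coli carrying a donor and donor-binding-loop pair library and a target plasmid with T7-inducible IS621 bridge recombinase was plated on IPTG (0.07 mM) plus kanamycin or unselected. CPM were averaged over two replicates and scaled by control-derived factors.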
# 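Also: IS621 bridge recombinase in Escherichia coli cells against a fixed T5 target plasmid.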
row,Sequence,recombinant UMI read abundance (log10)
1,GAAACGTCATGGACCGGTTTTCCCGGTAATCCGTATTTGGC (site GAAACGTCTGC),2.01
2,GAAAGCTCATGGACCGGTTTTCCCGGTAATCCGTATTTGCG (site GAAAGCTCTCG),2.77
3,GAAAGGCCATGGACCGGTTTTCCCGGTAATCCGTATTTGCA (site GAAAGGCCTTG),0
4,GAAAGGCCATGGACCGGTTTTCCCGGTAATCCGTATTTGCA (site GAACGGCCTTG),0
5,GAAAGGCCATGGACCGGTTTTCCCGGTAATCCGTATTTGCA (site GAAGGGCCTTG),0
6,GAAAGGCCATGGACCGGTTTTCCCGGTAATCCGTATTTGCA (site GAATGGCCTTG),0
7,GAAAGTCCATGGACCGGTTTTCCCGGTAATCCGTATTTGTA (site AAAAGTCCTTA),0
8,GAAAGTCCATGGACCGGTTTTCCCGGTAATCCGTATTTGTA (site CAAAGTCCTTA),0.821
9,GAAAGTCCATGGACCGGTTTTCCCGGTAATCCGTATTTGTA (site GAAAGTCCTTA),0.0817
10,GAAAGTCCATGGACCGGTTTTCCCGGTAATCCGTATTTGTA (site TAAAGTCCTTA),1.01
11,GAACGGACATGGACCGGTTTTCCCGGTAATCCGTATTTGAA (site GAACGGACTTT),0.965
12,GAACTATCATGGACCGGTTTTCCCGGTAATCCGTATTTGCC (site GAACTATCTGG),1.78
13,GAACTCACATGGACCGGTTTTCCCGGTAATCCGTATTTGAT (site GAACTCACTAT),2.08
14,GAACTCACATGGACCGGTTTTCCCGGTAATCCGTATTTGAT (site GACCTCACTAT),0.375
15,GAACTCACATGGACCGGTTTTCCCGGTAATCCGTATTTGAT (site GAGCTCACTAT),0
16,GAACTCACATGGACCGGTTTTCCCGGTAATCCGTATTTGAT (site GATCTCACTAT),0.263
17,GAAGAAGCATGGACCGGTTTTCCCGGTAATCCGTATTTGAG (site GAAGAAGCTCT),2.53
18,GAAGAATCATGGACCGGTTTTCCCGGTAATCCGTATTTGTT (site GAAGAATCTAA),3.34
19,GAAGAATCATGGACCGGTTTTCCCGGTAATCCGTATTTGTT (site GAAGACTCTAA),1.41
20,GAAGAATCATGGACCGGTTTTCCCGGTAATCCGTATTTGTT (site GAAGAGTCTAA),1.59
21,GAAGAATCATGGACCGGTTTTCCCGGTAATCCGTATTTGTT (site GAAGATTCTAA),0
22,GAAGACCCATGGACCGGTTTTCCCGGTAATCCGTATTTGCG (site GAAGACCCTCG),0.691
23,GAAGAGGCATGGACCGGTTTTCCCGGTAATCCGTATTTGTA (site GAAGAGGCTTA),1.64
24,GAAGATCCATGGACCGGTTTTCCCGGTAATCCGTATTTGTT (site GAAGATACTAA),0.0059
25,GAAGATCCATGGACCGGTTTTCCCGGTAATCCGTATTTGTT (site GAAGATCCTAA),1.25

row,Sequence,recombinant UMI read abundance (log10)
1,GAAGATCCATGGACCGGTTTTCCCGGTAATCCGTATTTGTT (site GAAGATGCTAA),0.00882
2,GAAGATCCATGGACCGGTTTTCCCGGTAATCCGTATTTGTT (site GAAGATTCTAA),0.0204
3,GAAGATTCATGGACCGGTTTTCCCGGTAATCCGTATTTGAT (site GAAGATTCTAA),0.773
4,GAAGATTCATGGACCGGTTTTCCCGGTAATCCGTATTTGAT (site GAAGATTCTAC),0.00538
5,GAAGATTCATGGACCGGTTTTCCCGGTAATCCGTATTTGAT (site GAAGATTCTAG),0
6,GAAGATTCATGGACCGGTTTTCCCGGTAATCCGTATTTGAT (site GAAGATTCTAT),2.48
7,GAAGATTCATGGACCGGTTTTCCCGGTAATCCGTATTTGTG (site GAAGATTCTAA),1.55
8,GAAGATTCATGGACCGGTTTTCCCGGTAATCCGTATTTGTG (site GAAGATTCTCA),2.81
9,GAAGATTCATGGACCGGTTTTCCCGGTAATCCGTATTTGTG (site GAAGATTCTGA),0
10,GAAGATTCATGGACCGGTTTTCCCGGTAATCCGTATTTGTG (site GAAGATTCTTA),1.24
11,GAAGGACCATGGACCGGTTTTCCCGGTAATCCGTATTTGCG (site GAAGGACCTCG),0
12,GAAGGGACATGGACCGGTTTTCCCGGTAATCCGTATTTGCA (site GAAGGGACTTG),2.41
13,GAAGGTGCATGGACCGGTTTTCCCGGTAATCCGTATTTGAA (site GAAGGTGCTTT),2.08
14,GAAGTCTCATGGACCGGTTTTCCCGGTAATCCGTATTTGGT (site GAAGTCTCTAC),2.53
15,GAATACACATGGACCGGTTTTCCCGGTAATCCGTATTTGCG (site GAATACACTCG),2.66
16,GAATACTCATGGACCGGTTTTCCCGGTAATCCGTATTTGGA (site GAATACTCTTC),2.53
17,GAATAGACATGGACCGGTTTTCCCGGTAATCCGTATTTGCC (site GAATAGACTGG),2.33
18,GAATAGACATGGACCGGTTTTCCCGGTAATCCGTATTTGCC (site GCATAGACTGG),1.73
19,GAATAGACATGGACCGGTTTTCCCGGTAATCCGTATTTGCC (site GGATAGACTGG),1.44
20,GAATAGACATGGACCGGTTTTCCCGGTAATCCGTATTTGCC (site GTATAGACTGG),2.39
21,GAATAGTCATGGACCGGTTTTCCCGGTAATCCGTATTTGGG (site GAATAGTCTCC),1.13
22,GAATGAACATGGACCGGTTTTCCCGGTAATCCGTATTTGGT (site GAATGAACTAC),1.55
23,GAATGGCCATGGACCGGTTTTCCCGGTAATCCGTATTTGCT (site GAATGGCCTAG),0.0235
24,GAATGGCCATGGACCGGTTTTCCCGGTAATCCGTATTTGCT (site GAATGGCCTCG),0.0255
25,GAATGGCCATGGACCGGTTTTCCCGGTAATCCGTATTTGCT (site GAATGGCCTGG),0

row,Sequence,recombinant UMI read abundance (log10)
1,GAATGGCCATGGACCGGTTTTCCCGGTAATCCGTATTTGCT (site GAATGGCCTTG),0
2,GAATTCGCATGGACCGGTTTTCCCGGTAATCCGTATTTGCT (site GAATTCGCTAG),2.87
3,GACAAAACATGGACCGGTTTTCCCGGTAATCCGTATTTGCG (site GACAAAACTCG),1.5
4,GACAAAACATGGACCGGTTTTCCCGGTAATCCGTATTTGGC (site GACAAAACTGC),0
5,GACAAACCATGGACCGGTTTTCCCGGTAATCCGTATTTGGG (site GACAAACCTAC),0.0248
6,GACAAACCATGGACCGGTTTTCCCGGTAATCCGTATTTGGG (site GACAAACCTCC),0
7,GACAAACCATGGACCGGTTTTCCCGGTAATCCGTATTTGGG (site GACAAACCTGC),0
8,GACAAACCATGGACCGGTTTTCCCGGTAATCCGTATTTGGG (site GACAAACCTTC),0
9,GACAATCCATGGACCGGTTTTCCCGGTAATCCGTATTTGAA (site GACAATCCTTT),0.601
10,GACAATCCATGGACCGGTTTTCCCGGTAATCCGTATTTGAA (site GCCAATCCTTT),0
11,GACAATCCATGGACCGGTTTTCCCGGTAATCCGTATTTGAA (site GGCAATCCTTT),0.0165
12,GACAATCCATGGACCGGTTTTCCCGGTAATCCGTATTTGAA (site GTCAATCCTTT),0.0122
13,GACACAGCATGGACCGGTTTTCCCGGTAATCCGTATTTGAC (site GACACAGCTGT),2.44
14,GACACGTCATGGACCGGTTTTCCCGGTAATCCGTATTTGCC (site GACACGTCTGG),2.45
15,GACAGCTCATGGACCGGTTTTCCCGGTAATCCGTATTTGGT (site GACAGCTCTAC),1.68
16,GACAGCTCATGGACCGGTTTTCCCGGTAATCCGTATTTGTC (site GACAGCTCTGA),1.15
17,GACCAGCCATGGACCGGTTTTCCCGGTAATCCGTATTTGTT (site GACCAGCCTAA),0
18,GACCGCTCATGGACCGGTTTTCCCGGTAATCCGTATTTGGC (site GACCGCTCTGC),2.43
19,GACCGGGCATGGACCGGTTTTCCCGGTAATCCGTATTTGAA (site GACCGGGCTTT),0.143
20,GACCGGGCATGGACCGGTTTTCCCGGTAATCCGTATTTGCG (site GACCGGGCTCG),0
21,GACCGTTCATGGACCGGTTTTCCCGGTAATCCGTATTTGCT (site GACCGTTCTAG),1.7
22,GACCTCTCATGGACCGGTTTTCCCGGTAATCCGTATTTGTA (site GACCTCTCTTA),2.09
23,GACCTTTCATGGACCGGTTTTCCCGGTAATCCGTATTTGTT (site GACCTTTCTAA),0
24,GACGACGCATGGACCGGTTTTCCCGGTAATCCGTATTTGTC (site GACGACGCTGA),2.6
25,GACGATTCATGGACCGGTTTTCCCGGTAATCCGTATTTGAT (site GACGATTCTAT),2.03
